Laboratory results published in US8952177B2 (Janssen Pharmaceutica NV, priority 2013, dated 2015).
Where a name gives a salt, the structure may show the parent alone. Read-outs that look alike come from different tables or passages of the source.

Legend:
[1] = test system: leukotriene pathway in human whole blood (LTB4); experiment: Human whole blood assay (LTB4 after calcium ionophore A23187 stimulation); assay type: cell-based; conditions: human whole blood diluted 1:1 in RPMI, 15 min pre-incubation, A23187 7 μg/mL for 30 min at 37° Celsius
How it was run: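 Heparinised human whole blood, diluted 1:1 in RPMI, was preincubated with compound for 15 min at 37° C. before stimulation with A23187 (7 μg/mL) for 30 min. Plasma LTB4 was measured by immunoassay kit and IC50 obtained by 4-parameter fit; single replicate per plate, blood from at least one donor.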

[2] = target: human FLAP (Homo sapiens (Human), UniProt P20292); experiment: FLAP binding assay (HTRF format); conditions: read-out: FLAP Binding wild type HTRF Ki
Sequence of human FLAP (P20292 whole entry): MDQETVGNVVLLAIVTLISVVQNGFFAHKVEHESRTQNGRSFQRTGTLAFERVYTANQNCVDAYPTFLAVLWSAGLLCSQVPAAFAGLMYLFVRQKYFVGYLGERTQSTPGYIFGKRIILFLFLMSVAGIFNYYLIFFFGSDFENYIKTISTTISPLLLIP
How it was run: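 His6-tagged human FLAP in Sf-9 membranes competed against a FITC-labelled indole FLAP modulator in HTRF format; 2 h reaction, read as HTRF ratio. Ki and IC50 from averaged duplicate ratios over 2–20 runs of two plates each; parenthetical numbers give run count.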

[3] = human FLAP-containing Sf-9 membranes, 25 nM HTRF ligand, 2 h, average of runs

SMILES	IC50 ([1]; Homo sapiens) [nM]	Ki [2, 3] [nM]	IC50 [1] [nM]	Ki [2] [nM]
Cn1ccc(COc2cc(F)c3nc([C@@H]4CCCC[C@@H]4C(=O)O)n(Cc4ccc(N5CCCCC5)cc4)c3c2)n1 (racemic) [Example 169, racemic cis-2-{4-Fluoro-6-[(1-methyl-1H-pyrazol-3-yl)methoxy]-1-(4-piperidin-1-ylbenzyl)-1H-benzimidazol-2-yl}cyclohexanecarboxylic acid as the HCl salt]	1220	12		
Cc1ccc(COc2cc(F)c3nc(CC4(C(=O)O)CCCC4)n(Cc4ccc(OC(F)(F)F)cc4)c3c2)nc1 [Example 72, 1-({4-Fluoro-6-[(5-methylpyridin-2-yl)methoxy]-1-[4-(trifluoromethoxy)benzyl]-1H-benzimidazol-2-yl}methyl)cyclopentanecarboxylic acid as the TFA salt]			1930	60
Cn1ccc(COc2cc(F)c3nc([C@@H]4CCCC[C@@H]4C(=O)O)n(Cc4ccc(Br)cc4F)c3c2)n1 (racemic) [Example 94, racemic cis-2-{1-(4-Bromo-2-fluorobenzyl)-4-fluoro-6-[(1-methyl-1H-pyrazol-3-yl)methoxy]-1H-benzimidazol-2-yl}cyclohexanecarboxylic acid]	340	2.4		
Cn1ccc(COc2cc(F)c3nc([C@H]4CCCC[C@H]4C(=O)O)n(Cc4ccc(OC(F)(F)F)cc4F)c3c2)n1 (racemic) [Example 96, racemic cis-2-{4-Fluoro-1-[2-fluoro-4-(trifluoromethoxy)benzyl]-6-[(1-methyl-1H-pyrazol-3-yl)methoxy]-1H-benzimidazol-2-yl}cyclohexanecarboxylic acid as the HCl salt]	810	7		
Cn1ccc(COc2ccc3nc([C@@H]4CCCC[C@@H]4C(=O)O)n(Cc4ccc(OC(F)(F)F)cc4F)c3c2)n1 (stereo in doubt) [Example 51, racemic cis-2-{1-[2-Fluoro-4-(trifluoromethoxy)benzyl]-6-[(1-methyl-1H-pyrazol-3-yl)methoxy]-1H-benzimidazol-2-yl}cyclohexanecarboxylic acid]	340	8		
Cn1ccc(COc2ccc3nc([C@@H]4CCCC[C@@H]4C(=O)O)n(Cc4ccc(OC(F)(F)F)cc4Br)c3c2)n1 (racemic) [Example 104, racemic cis-2-{1-[2-Bromo-4-(trifluoromethoxy)benzyl]-6-[(1-methyl-1H-pyrazol-3-yl)methoxy]-1H-benzimidazol-2-yl}cyclohexanecarboxylic acid as the HCl salt]	690	30		
CCC(CC)(Cc1nc2ccc(OCc3ncc(C)cc3F)cc2n1Cc1ccc(N2CCC(F)CC2)cc1)C(=O)O [Example 182, 2-Ethyl-2-({6-[(3-fluoro-5-methylpyridin-2-yl)methoxy]-1-[4-(4-fluoropiperidin-1-yl)benzyl]-1H-benzimidazol-2-yl}methyl)butanoic acid]	480	11		
CCC(CC)(Cc1nc2ccc(OCc3ccc(C)cn3)cc2n1Cc1ccc(OC(F)(F)F)c(Cl)c1)C(=O)O [Example 24, 2-({1-[3-Chloro-4-(trifluoromethoxy)benzyl]-6-[(5-methylpyridin-2-yl)methoxy]-1H-benzimidazol-2-yl}methyl)-2-ethylbutanoic acid]	> 10000	11		
Cc1ccc(COc2cc(Cl)c3nc(CC4(C(=O)O)CCCC4)n(Cc4ccc(Br)cc4)c3c2)nc1 [Example 78, 1-({1-(4-Bromobenzyl)-4-chloro-6-[(5-methylpyridin-2-yl)methoxy]-1H-benzimidazol-2-yl}methyl)cyclopentanecarboxylic acid]	14000	24		
Cc1cnc(COc2ccc3nc([C@H]4CCCC[C@H]4C(=O)O)n(Cc4c(F)cc(-c5ccc(C(F)(F)F)cc5)cc4F)c3c2)c(F)c1 (racemic) [Example 137, racemic cis-2-(1-((3,5-difluoro-4′-(trifluoromethyl)-[1,1′-biphenyl]-4-yl)methyl)-6-((3-fluoro-5-methylpyridin-2-yl)methoxy)-1H-benzo[d]imidazol-2-yl)cyclohexanecarboxylic acid]	91	0.66		
CCC(CC)(Cc1nc2ccc(OCc3ccc(C)cn3)cc2n1Cc1ccc(Br)cc1)C(=O)O [Example 8, 2-({1-(4-Bromobenzyl)-6-[(5-methylpyridin-2-yl)methoxy]-1H-benzimidazol-2-yl}methyl)-2-ethylbutanoic acid as the TFA salt]	2320	10		
Cc1cnc(COc2ccc3nc(CC(C)(C)C(=O)O)n(Cc4ccc(OC(F)(F)F)cc4F)c3c2)c(F)c1 [Example 131, 3-{6-[(3-Fluoro-5-methylpyridin-2-yl)methoxy]-1-[2-fluoro-4-(trifluoromethoxy)benzyl]-1H-benzimidazol-2-yl}-2,2-dimethylpropanoic acid]	3930	24		
CCC(CC)(Cc1nc2ccc(OCc3ccn(C)n3)cc2n1Cc1ccc(-c2ccc(C(F)(F)F)cc2)cc1F)C(=O)O [Example 188]		12	550	
Cc1ccc(COc2ccc3nc([C@H]4CCCC[C@H]4C(=O)O)n(Cc4c(F)cc(-c5ccc(C(F)(F)F)cc5)cc4F)c3c2)nc1 (racemic) [Example 138, racemic cis-2-(1-{[3,5-Difluoro-4′-(trifluoromethyl)biphenyl-4-yl]methyl}-6-[(5-methylpyridin-2-yl)methoxy]-1H-benzimidazol-2-yl)cyclohexanecarboxylic acid]	97	2.5		
Cc1ccc(Cn2c(CC3(C(=O)O)CCCC3)nc3c(F)cc(OCc4ccc(C)cn4)cc32)cc1 [Example 73, 1-({4-Fluoro-1-(4-methylbenzyl)-6-[(5-methylpyridin-2-yl)methoxy]-1H-benzimidazol-2-yl}methyl)cyclopentanecarboxylic acid as the TFA salt]	3250	52		
Cc1ccc(COc2ccc3nc(C4CCCC[C@@H]4C(=O)O)n(Cc4ccc(C#N)cc4)c3c2)nc1 (mixture of isomers) [Example 18, racemic trans-2-{1-(4-Cyanobenzyl)-6-[(5-methylpyridin-2-yl)methoxy]-1H-benzimidazol-2-yl}cyclohexanecarboxylic acid as the TFA salt]	> 10000	53		
Cc1cnc(COc2ccc3nc([C@H]4CCCC[C@H]4C(=O)O)n(Cc4ccc(-c5ccc(C(F)(F)F)cc5)cc4)c3c2)c(F)c1 (single isomer, unassigned) [Example 139, (1R*,2S*)-2-(6-[(3-Fluoro-5-methylpyridin-2-yl)methoxy]-1-{[4′-(trifluoromethyl)biphenyl-4-yl]methyl}-1H-benzimidazol-2-yl)cyclohexanecarboxylic acid]	140	0.47		
Cc1ccc(COc2ccc3nc(C4CCCC[C@H]4C(=O)O)n(Cc4ccc(N5CCC(F)(F)CC5)cc4F)c3c2)nc1 (mixture of isomers) [Example 161, racemic cis-2-{1-[4-(4,4-Difluoropiperidin-1-yl)-2-fluorobenzyl]-6-[(5-methylpyridin-2-yl)methoxy]-1H-benzimidazol-2-yl}cyclohexanecarboxylic acid]	300	4		
Cc1cnc(COc2ccc3nc(CC(C)(C)C(=O)O)n(Cc4ccc(N5CCC(C(C)(C)C)CC5)cc4)c3c2)c(F)c1 [Example 184, 3-{1-[4-(4-tert-Butylpiperidin-1-yl)benzyl]-6-[(3-fluoro-5-methylpyridin-2-yl)methoxy]-1H-benzimidazol-2-yl}-2,2-dimethylpropanoic acid]	800	15		
Cc1ccc(Cn2c([C@@H]3CCCC[C@@H]3C(=O)O)nc3c(F)cc(OCc4ccn(C)n4)cc32)cc1 (racemic) [Example 97, racemic cis-2-{4-Fluoro-1-(4-methylbenzyl)-6-[(1-methyl-1H-pyrazol-3-yl)methoxy]-1H-benzimidazol-2-yl}cyclohexanecarboxylic acid as the HCl salt]	300	7.5		
Cn1cc(Cl)c(COc2ccc3nc([C@@H]4CCCC[C@@H]4C(=O)O)n(Cc4ccc(-c5ccc(C(F)(F)F)cc5)cc4)c3c2)n1 (racemic) [Example 151, racemic cis-2-(6-[(4-Chloro-1-methyl-1H-pyrazol-3-yl)methoxy]-1-{[4′-(trifluoromethyl)biphenyl-4-yl]methyl}-1H-benzimidazol-2-yl)cyclohexanecarboxylic acid]	910	13		
Cn1cc(F)c(COc2ccc3nc([C@@H]4CCCC[C@@H]4C(=O)O)n(Cc4ccc(OC(F)(F)F)cc4F)c3c2)n1 (racemic) [Example 85, racemic cis-2-{6-[(4-Fluoro-1-methyl-1H-pyrazol-3-yl)methoxy]-1-[2-fluoro-4-(trifluoromethoxy)benzyl]-1H-benzimidazol-2-yl}cyclohexanecarboxylic acid]	680	1.4		
Cn1ccc(COc2cc(F)c3nc([C@@H]4CCCC[C@@H]4C(=O)O)n(Cc4ccc(Br)cc4)c3c2)n1 (racemic) [Example 93, racemic cis-2-{1-(4-Bromobenzyl)-4-fluoro-6-[(1-methyl-1H-pyrazol-3-yl)methoxy]-1H-benzimidazol-2-yl}cyclohexanecarboxylic acid]	550	1.1		
